These results are taken from ChEMBL document CHEMBL1154198, “Chemical genetics of Plasmodium falciparum” (Nature, 2010).

For orientation: pEC50 means the EC50 on a negative log10 scale, so that one unit is a factor of ten.

pEC50: −log10 of the molar value.

The test system of test [1] is Plasmodium falciparum. The experiment in a line: ST_JUDE: Plasmodium falciparum 3D7 EC50 (uM) as measured by SYBR green dye. The test is classed as functional, organism-based.
Test [2] has as its system Plasmodium falciparum. The experiment in a line: ST_JUDE: Plasmodium falciparum K1 EC50 (uM) as measured by SYBR green dye. The class given is functional, organism-based.

`COc1ccc(C(NC(=O)c2cccnc2)c2cc(Cl)c3cccnc3c2O)cc1OC` (configuration not stated): the results for the pEC50 in the test with Plasmodium falciparum [1] and with Plasmodium falciparum [2] were less than 4.82 and 5.57, respectively.
As to `CC1=C/C(=N\OC(=O)c2ccc(Br)cc2)C=CC1=O`, the pEC50 in the test on Plasmodium falciparum [1] and in the test on Plasmodium falciparum [2] was less than 4.82 each time.
For `CCCO/C(O)=C1\C(C)=NC2=C(C(=O)CC(c3ccc(Cl)cc3)C2)C1c1cccc(O)c1` (configuration not stated), the pEC50 was 5.32 in the test with Plasmodium falciparum [1] and 5.35 in the test on Plasmodium falciparum [2].
The corresponding values for `Cc1ccc(C)c(C(C)NC(=S)Nc2ccc([N+](=O)[O-])cc2)c1` (configuration not stated) are less than 4.82 and 5.47.
For `CN1CCN(c2ccc(NC(=O)c3cccc(I)c3)cc2Cl)CC1`, the pEC50 in the test on Plasmodium falciparum [1] was 5.13; with Plasmodium falciparum [2], less than 4.82.
As for `Oc1c(C(Nc2ccccn2)c2cccc(Cl)c2Cl)ccc2cccnc12` (configuration not stated), the pEC50 with Plasmodium falciparum [1] is 5.75; with Plasmodium falciparum [2] it was 5.61.
Take `CSCCCN1C(=O)CSC1c1cnccc1-c1ccc(Br)cc1` (configuration not stated): the pEC50 in the test on Plasmodium falciparum [1] was 5.92; with Plasmodium falciparum [2], 5.93.
As for `Cc1cc(Nc2ccc(F)c(Cl)c2)n2nc(C)nc2n1`, the pEC50 was 5.49 in the test with Plasmodium falciparum [1] and 5.04 in the test on Plasmodium falciparum [2].
On to `Cc1ccc(/C(O)=C/C=N/c2cc([N+](=O)[O-])ccc2O)cc1`, for which the pEC50 with Plasmodium falciparum [1] is less than 4.82; in the test with Plasmodium falciparum [2] it was 5.77.
With `COc1ccc(CCNC(=S)Nc2ccccc2C)cc1OC`, the results for the pEC50 in the test with Plasmodium falciparum [1] and in the test with Plasmodium falciparum [2] were 5.43 and 5.40, respectively.
On to `Cc1ccc2c(c1)c1c(n2CC(O)CNC2CCCC2)CCCC1` (configuration not stated), for which the pEC50 was 5.54 in the test on Plasmodium falciparum [1] and 5.76 in the test on Plasmodium falciparum [2].
For `O=C(N1CCCN(C(=O)C(Cl)(Cl)Cl)CC1)C(Cl)(Cl)Cl`, the pEC50 with Plasmodium falciparum [1] was 5.47; in the test with Plasmodium falciparum [2], 5.65.
Regarding `O=C(Nc1ccc(Br)cc1)Nc1cccc(Cl)c1`, the pEC50 is less than 4.82 in the test with Plasmodium falciparum [1] and 5.26 with Plasmodium falciparum [2].
Regarding `CC(=O)c1ccc(NC(=O)C2c3ccccc3C(=O)N(CC(C)C)C2c2cccs2)cc1` (configuration not stated), the results for the pEC50 in the test with Plasmodium falciparum [1] and with Plasmodium falciparum [2] were 6.24 and 6.17, respectively.
In the case of `CCOCc1cc(CN2CCN(c3cccc(C(F)(F)F)c3)CC2)c(O)c2ncccc12`, the pEC50 in the test with Plasmodium falciparum [1] was 5.85; with Plasmodium falciparum [2] it was 5.83.
For `Oc1ccc(Cl)cc1CN1CCN(Cc2ccccc2)CC1`, the pEC50 in the test with Plasmodium falciparum [1] is 5.99; in the test with Plasmodium falciparum [2], 6.31.
Consider `CCCCCOCC1CC2(CC(C)(c3csc(Nc4ccccc4Cl)n3)OC2=O)C(=O)O1` (configuration not stated), for which the pEC50 with Plasmodium falciparum [1] and in the test with Plasmodium falciparum [2] was less than 4.82 in each case.
`COc1ccc(Cl)cc1NC(=S)N1CCN(c2ccc(C#N)cc2)CC1`: the pEC50 is 6.07 in the test on Plasmodium falciparum [1] and 5.89 with Plasmodium falciparum [2].
For the compound `Cc1ccc(CN2CCCN(Cc3ccc(F)cc3)C2c2ccccc2F)cc1` (configuration not stated), the pEC50 was 5.38 in the test with Plasmodium falciparum [1] and less than 4.82 in the test with Plasmodium falciparum [2].
`CCN1CCN(c2cc(C)c3cc(NC(=S)NCc4cc(OC)ccc4OC)ccc3n2)CC1`: the pEC50 in the test on Plasmodium falciparum [1] was 5.51; in the test on Plasmodium falciparum [2], 5.05.
For `CCOC(=O)C1=C(c2ccccc2)N=c2s/c(=C\c3cccc(O)c3)c(=O)n2C1c1cccc(OC)c1OC` (configuration not stated), the values for the pEC50 in the test with Plasmodium falciparum [1] and in the test with Plasmodium falciparum [2] were 5.49 and 5.66, respectively.
Take `Cc1c(C)n(CC(O)CNC2CCCCC2C)c2ccccc12` (configuration not stated): the pEC50 in the test on Plasmodium falciparum [1] is 6.28; in the test with Plasmodium falciparum [2] it was 6.46.
As to `Oc1cccnc1NC(c1ccc(Cl)cc1)c1ccc2cccnc2c1O` (configuration not stated), the pEC50 in the test on Plasmodium falciparum [1] is 5.42; in the test with Plasmodium falciparum [2] it was 5.25.
As to `c1cncc(CN2CCN(Cc3cccc4ccccc34)CC2)c1`, the negative-log EC50 (pEC50) in the test with Plasmodium falciparum [1] and in the test on Plasmodium falciparum [2] was less than 4.82 throughout.
For the compound `COc1cccc(C(=O)NC(NC(=S)Nc2ccccc2Cl)C(Cl)(Cl)Cl)c1` (configuration not stated), the figures for the pEC50 in the test on Plasmodium falciparum [1] and with Plasmodium falciparum [2] were 5.57 and 5.27, respectively.
As to `Cc1cc(C)c2c(c1)c(-c1ccccc1)c(-c1ccccc1)n2CC(O)CN1CCN(CCO)CC1` (configuration not stated), the pEC50 is 5.66 with Plasmodium falciparum [1] and 5.80 in the test on Plasmodium falciparum [2].
The corresponding values for `CCCCC(O)(c1ccc(Cl)cc1)C(CN1CCOCC1)c1ccc(Cl)cc1` (configuration not stated) are 5.40 and 5.78.
For the compound `CCOC(=O)c1c(N)n(-c2ccc(F)cc2)c2nc3ccccc3nc12`, the pEC50 is 5.61 in the test on Plasmodium falciparum [1] and less than 4.82 in the test on Plasmodium falciparum [2].
Regarding `O=S(=O)(Nc1ccc(-c2ccc(N3CCCC3)nn2)cc1)c1ccc(Br)cc1`, the pEC50 in the test with Plasmodium falciparum [1] and with Plasmodium falciparum [2] was less than 4.82 throughout.
Consider `CCCCn1c(C)c(C(=O)OCC)c2cc(OC(C)=O)c(Br)cc21`, for which the pEC50 is 5.56 in the test on Plasmodium falciparum [1] and less than 4.82 in the test with Plasmodium falciparum [2].
With `Cc1ccc(CN2CCN(C3CCCCC3)C(CCO)C2)cc1C` (configuration not stated), the pEC50 with Plasmodium falciparum [1] and with Plasmodium falciparum [2] was less than 4.82 each time.
Regarding `COc1ccc(-c2nonc2NC(=O)c2ccc(C(C)(C)C)cc2)cc1OC`, the pEC50 with Plasmodium falciparum [1] was 5.98; in the test on Plasmodium falciparum [2], 5.93.
As for `CCN(CC)c1ccc(C2NC(=O)NC(O)(C(F)(F)F)C2C(=O)c2cccnc2)cc1` (configuration not stated), the pEC50 in the test with Plasmodium falciparum [1] was 5.04; in the test on Plasmodium falciparum [2] it was 5.07.
For `O=C(NCCN1CCC(Cc2ccccc2)CC1)c1cc(-c2cccnc2)nc2ccccc12`, the pEC50 with Plasmodium falciparum [1] was 5.95; in the test on Plasmodium falciparum [2], 6.03.
`Cc1ccc(C)c(NC(=O)c2c(-c3c(Cl)cccc3Cl)noc2C)c1`: the pEC50 with Plasmodium falciparum [1] was 6.27; with Plasmodium falciparum [2] it was 5.36.
As for `C#CCOc1ccc(C2C(C#N)=C(N)Oc3cc(O)ccc32)cc1OCC` (configuration not stated), the pEC50 is less than 4.82 in the test on Plasmodium falciparum [1] and 4.99 in the test on Plasmodium falciparum [2].
`COc1ccc(NC(=O)c2sc3ccccc3c2Cl)c(OC)c1`: the pEC50 in the test with Plasmodium falciparum [1] and in the test with Plasmodium falciparum [2] was less than 4.82 in each case.
Consider `CC(=O)Oc1ccccc1C(=O)Nc1cccc(C(F)(F)F)c1`, for which the pEC50 in the test on Plasmodium falciparum [1] and with Plasmodium falciparum [2] was 5.57 in each case.
Consider `Cc1ccc(Cn2c(=O)c3ccccc3n3c(CCC(=O)N4CCC(C(N)=O)CC4)nnc23)cc1`, for which the pEC50 in the test on Plasmodium falciparum [1] and in the test with Plasmodium falciparum [2] was less than 4.82 in each case.
As for `Cc1ccnc(NC(c2ccc([N+](=O)[O-])cc2)c2ccc3cccnc3c2O)c1` (configuration not stated), the pEC50 in the test on Plasmodium falciparum [1] is 5.74; with Plasmodium falciparum [2], 5.43.
The corresponding values for `Oc1ccc(C(=C(Cl)Cl)c2ccc(O)cc2)cc1` are 5.61 and 6.03.
Consider `CCc1ccccc1NC(=O)C1c2ccccc2C(=O)N2CCc3ccccc3C12` (configuration not stated), for which the pEC50 is 6.08 in the test on Plasmodium falciparum [1] and 5.93 in the test on Plasmodium falciparum [2].
The corresponding values for `Cc1ccc([N+](=O)[O-])cc1NC(=O)c1cc2ccccc2cc1O` are 6.08 and 6.08.
As to `Cc1ccnc(NC(c2cccc(OCc3ccccc3)c2)c2ccc3cccnc3c2O)c1` (configuration not stated), the values for the pEC50 with Plasmodium falciparum [1] and in the test on Plasmodium falciparum [2] were 5.74 and 5.53, respectively.
As to `O=C1C(Nc2cccc(F)c2)=C(N2CCCCC2)C(=O)c2ccccc21`, the results for the pEC50 in the test with Plasmodium falciparum [1] and in the test with Plasmodium falciparum [2] were 6.58 and 6.33, respectively.
Taken in the same sequence, the figures for `Cc1cc(N2CCN(C)CC2)nc2ccc(NC(=S)NCCCN3CCc4ccccc4C3)cc12` were 5.83 and 5.18.
Regarding `c1ccc(CN2CCN(c3nc(N(c4ccccc4)c4ccccc4)nc(-n4ccnc4)n3)CC2)cc1`, the pEC50 with Plasmodium falciparum [1] is 5.61; in the test with Plasmodium falciparum [2], 5.74.
Take `CC(C)(C)c1ccc(C(=O)CC(=O)c2cc(Cl)ccc2O)cc1`: the pEC50 in the test with Plasmodium falciparum [1] and with Plasmodium falciparum [2] was less than 4.82 in each case.
In the case of `Nc1ccc(-c2nc3cc(Cc4ccc5[nH]c(-c6ccc(N)cc6)nc5c4)ccc3[nH]2)cc1`, the pEC50 with Plasmodium falciparum [1] was 5.97; in the test with Plasmodium falciparum [2], 5.95.
Take `CCOc1ccc2nc(C)cc(Nc3ccc4c(c3)OCCO4)c2c1`: the pEC50 in the test with Plasmodium falciparum [1] is less than 4.82; in the test on Plasmodium falciparum [2], 5.03.
In the case of `CCCC(=O)NC(c1ccc(Cl)cc1Cl)c1ccc2cccnc2c1O` (configuration not stated), the pEC50 in the test on Plasmodium falciparum [1] was 5.65; in the test with Plasmodium falciparum [2] it was 5.45.
